Measured values from ChEMBL document CHEMBL2407073, “RCAI-61 and related 6'-modified analogs of KRN7000: their synthesis and bioactivity for mouse lymphocytes to produce interferon-γ in vivo” (Bioorg Med Chem, 2013).
The source made the active and inactive calls.

What was measured:
Type in all cases: functional, organism-based
Mus musculus [1] = assay: Immunostimulatory activity in C57BL/6J mouse assessed as increase in production of IL-12p70 in serum at 2 ug, iv measured at 3 to 6 hrs by cytometric bead array method
Mus musculus [2] = assay: Immunostimulatory activity in C57BL/6J mouse assessed as increase in production of IL-4 in serum at 2 ug, iv measured at 3 hrs by cytometric bead array method
Mus musculus [3] = assay: Immunostimulatory activity in C57BL/6J mouse assessed as increase in production of IFNgamma in serum at 2 ug, iv by ELISA
Mus musculus [4] = assay: Immunostimulatory activity in iv dosed C57BL/6J mouse assessed as increase in production of IL-4 in serum measured at 3 hrs by cytometric bead array method
Mus musculus [5] = assay: Immunostimulatory activity in C57BL/6J mouse assessed as increase in production of IFNgamma in serum at 0.02 ug, iv by ELISA
Mus musculus [6] = assay: Immunostimulatory activity in C57BL/6J mouse assessed as increase in production of IL-4 in serum at 0.02 to 2 ug, iv measured at 3 hrs by cytometric bead array method

Measured: Activity

CCCCCCCCCCCCCCCCCCCCCCCCCC(=O)N[C@@H](CO[C@H]1O[C@H](CF)[C@H](O)[C@H](O)[C@H]1O)[C@H](O)[C@H](O)CCCCCCCCCCCCCC
active: Mus musculus [1] | Mus musculus [2] | Mus musculus [3]

CCCCCCCCCCCCCCCCCCCCCCCCCC(=O)N[C@@H](CO[C@H]1O[C@H](COC)[C@H](O)[C@H](O)[C@H]1O)[C@H](O)[C@H](O)CCCCCCCCCCCCCC
active: Mus musculus [4] Dose-dependent effect | Mus musculus [5] | Mus musculus [1] | Mus musculus [2] | Mus musculus [3]

CCCCCCCCCCCCCCCCCCCCCCCCCC(=O)N[C@@H](CO[C@H]1O[C@H](CO)[C@H](O)[C@H](O)[C@H]1O)[C@H](O)[C@H](O)CCCCCCCCCCCCCC
active: Mus musculus [6] | Mus musculus [1] | Mus musculus [2] | Mus musculus [3]

CCCCCCCCCCCCCCCCCCCCCCCCCC(=O)N[C@@H](CO[C@H]1O[C@H](C)[C@H](O)[C@H](O)[C@H]1O)[C@H](O)[C@H](O)CCCCCCCCCCCCCC
active: Mus musculus [1] | Mus musculus [2] | Mus musculus [3]

CCCCCCCCCCCCCCCCCCCCCCCCCC(=O)N[C@@H](CO[C@H]1O[C@H](COCCO)[C@H](O)[C@H](O)[C@H]1O)[C@H](O)[C@H](O)CCCCCCCCCCCCCC
active: Mus musculus [1] | Mus musculus [2] | Mus musculus [3]

CCCCCCCCCCCCCCCCCCCCCCCCCC(=O)N[C@@H](CO[C@H]1O[C@H](COCC)[C@H](O)[C@H](O)[C@H]1O)[C@H](O)[C@H](O)CCCCCCCCCCCCCC
active: Mus musculus [1] | Mus musculus [2] | Mus musculus [3]

CCCCCCCCCCCCCCCCCCCCCCCCCC(=O)N[C@@H](CO[C@H]1O[C@H](CC)[C@H](O)[C@H](O)[C@H]1O)[C@H](O)[C@H](O)CCCCCCCCCCCCCC
active: Mus musculus [1] | Mus musculus [2] | Mus musculus [3]

CCCCCCCCCCCCCCCCCCCCCCCCCC(=O)N[C@@H](CO[C@H]1OC[C@H](O)[C@H](O)[C@H]1O)[C@H](O)[C@H](O)CCCCCCCCCCCCCC
active: Mus musculus [1] | Mus musculus [2] | Mus musculus [3]

CCCCCCCCCCCCCCCCCCCCCCCCCC(=O)N[C@@H](CO[C@H]1O[C@H](COCOCCOC)[C@H](O)[C@H](O)[C@H]1O)[C@H](O)[C@H](O)CCCCCCCCCCCCCC
active: Mus musculus [1] | Mus musculus [2] | Mus musculus [3]

CCCCCCCCCCCCCCCCCCCCCCCCCC(=O)N[C@@H](CO[C@H]1O[C@H](COCCC)[C@H](O)[C@H](O)[C@H]1O)[C@H](O)[C@H](O)CCCCCCCCCCCCCC
active: Mus musculus [1] | Mus musculus [2] | Mus musculus [3]

CCCCCCCCCCCCCCCCCCCCCCCCCC(=O)N[C@@H](CO[C@H]1O[C@H](COCOC)[C@H](O)[C@H](O)[C@H]1O)[C@H](O)[C@H](O)CCCCCCCCCCCCCC
active: Mus musculus [1] | Mus musculus [2] | Mus musculus [3]
